Structures are written as SMILES. Where a name gives a salt, the structure may show the parent alone. Some results are limits rather than exact numbers.

As usually defined, the melting point is the temperature, or range, at which the solid turns liquid. In the case of `Nc1cccc(-c2ccc(CCCN3CCN(CCc4ccccc4)CC3)cc2)n1` (as salt: hydrochloride) [Example 129, 6-{4-[3-(4-Phenethyl-piperazin-1-yl)-propyl]-phenyl}-pyridin-2-ylamine], the melting point was 125 to 140 °C.

For the compound `Nc1cccc(-c2ccc(CCN3Cc4ccccc4C3)cc2)n1` [Example 22, 6-{4-[2-(1,3-Dihydro-isoindol-2-yl)-ethyl]-phenyl}-pyridin-2-ylamine], the melting point lay within 140 to 143 °C.

In turn, `Nc1cccc(-c2ccc(CCN3CCN(C(=O)Cc4ccc(F)cc4)CC3)cc2)n1` came in with a melting point of 143 to 145 °C.

In turn, `Nc1cccc(-c2ccc(CCN3CCC4(CC3)NC(=O)N(CCc3ccccc3)C4=O)cc2)n1` (as salt: hydrochloride) [Example 57, 8-{2-[4-(6-Amino-pyridin-2-yl)-phenyl]-ethyl}-3-phenethyl-1,3,8-triaza-spiro[4.5]decane-2,4-dione] had a melting point of 176 to 180 °C.

In turn, `Nc1cccc(-c2ccc(CCN3CC4C(C3)C4NC(=O)Nc3ccccc3)cc2)n1` (centres unmarked) [Example 36, 1-(3-{2-[4-(6-Amino-pyridin-2-yl)-phenyl]-ethyl}-3-aza-bicyclo[3.1.0]hex-6-yl)-3-phenyl-urea] came in with a melting point of 192 to 194 °C.

In the case of `Nc1cccc(-c2ccc(CCNC3CCc4ccccc4C3)cc2)n1` (centres unmarked) (as salt: hydrochloride) [Example 18, 6-{4-[2-(1,2,3,4-Tetrahydro-naphthalen-2-ylamino)-ethyl]-phenyl}-pyridin-2-ylamine], the melting point is 320 to 322 °C.

`Nc1cccc(-c2ccc(CCN3CCN(CCCc4ccccc4)CC3)cc2)n1` (as salt: hydrochloride) [Example 40, 6-(4-{2-[4-(3-Phenyl-propyl)-piperazin-1-yl]-ethyl}-phenyl)-pyridin-2-ylamine] yielded a melting point of 258 to 264 °C.

`Nc1cccc(-c2ccc(CCN3CCN(c4nnnn4-c4ccc(F)cc4)CC3)cc2)n1` [Example 48, 6-[4-(2-{4-[1-(4-Fluoro-phenyl)-1H-tetrazol-5-yl]-piperazin-1-yl}-ethyl)-phenyl]-pyridin-2-ylamine] had a melting point of 185 to 187 °C.

For the compound `Nc1cccc(-c2ccc(CCN3CCN(CC(O)c4ccccc4)CC3)cc2)n1` (centres unmarked) (as salt: hydrochloride) [Example 103, 2-(4-{2-[4-(6-Amino-pyridin-2-yl)-phenyl]-ethyl}-piperazin-1-yl)-1-phenyl-ethanol], the melting point was 235 °C (dec.).

Turning to `Cc1ccc(NC(=O)N2CCN(CCc3ccc(-c4cccc(N)n4)cc3)CC2)cc1C` [Example 41, 4-{2-[4-(6-Amino-pyridin-2-yl)-phenyl]-ethyl}-piperazine-1carboxylic acid (3,4-dimethyl-phenyl)-amide], the melting point was 122 to 125 °C.

Turning to `Nc1cccc(-c2ccc(CCCNC3CCc4ccccc4C3)cc2)n1` (centres unmarked) (as salt: hydrochloride) [Example 127, 6-{4-[3-(1,2,3,4-Tetrahydro-naphthalen-2-ylamino)-propyl]-phenyl}-pyridin-2-ylamine], the melting point lay within 120 to 130 °C.

Regarding `CC(=O)N1CCN(CCc2ccc(-c3cccc(N)n3)cc2)CC1` [Example 10, 1-(4-{2-[4-(6-Amino-pyridin-2-yl)-phenyl]-ethyl}-piperazin-1-yl)-ethanone], the melting point lay within 201 to 203 °C.

Regarding `Nc1cccc(-c2ccc(CCNC3CC4CCC(C3)N4)cc2)n1` (centres unmarked) (as salt: hydrochloride), the melting point is 170 °C (dec.).

As for `Nc1cccc(-c2ccc(CCN3CCN(CCc4ccccc4)CC3)cc2)n1` [Example 1, 6-{4-[2-(4-Phenethyl-piperazin-1-yl)-ethyl]-phenyl}-pyridin-2-ylamine], the melting point is 111 to 113 °C.

With `CC(C)NC(=O)CN1CCN(CCc2ccc(-c3cccc(N)n3)cc2)CC1` [Example 23, 2-(4-{2-[4-(6-Amino-pyridin-2-yl)-phenyl]-ethyl}-piperazin-1-yl)-N-isopropyl-acetamide], the melting point fell in the range of 163 to 165 °C.

Regarding `Nc1cccc(-c2ccc(CCN3Cc4ccccc4CC3C(=O)O)cc2)n1` (centres unmarked) (as salt: hydrochloride) [Example 28, 2-{2-[4-(6-Amino-pyridin-2-yl)-phenyl]ethyl}-1,2,3,4-tetrahydro-isoquinoline-3-carboxylic acid], the melting point was 110 °C (dec.).

For the compound `COCC(=O)N1CCN(CCc2ccc(-c3cccc(N)n3)cc2)CC1` [Example 11, 1-(4-{2-[4-(6-Amino-pyridin-2-yl)-phenyl]-ethyl}-piperazin-1-yl)-2-methoxy-ethanone], the melting point fell in the range of 148 to 150 °C.

With `Nc1cccc(-c2ccc(CN3CCCCC3)cc2)n1` (as salt: hydrochloride) [Example 138, 6-(4-Piperidin-1-ylmethyl-phenyl)-pyridin-2-ylamine], the melting point was > 250 °C.

As to `Nc1cccc(-c2ccc(CCNC3CCN(C(=O)Nc4ccccc4)C3)cc2)n1` (centres unmarked) (as salt: hydrochloride) [Example 80, 3-{2-[4-(6-Amino-pyridin-2-yl)-phenyl]-ethylamino}-pyrrolidine-1-carboxylic acid phenylamide], the melting point was 130 °C (dec.).

In the case of `Nc1cccc(-c2ccc(CCN3CCN(C(=O)Cc4ccccc4)CC3)cc2)n1`, the melting point is 135 to 137 °C.

For the compound `Nc1cccc(-c2ccc(CCN3CCC(NC(=O)Cc4ccc(F)cc4)CC3)cc2)n1` (as salt: hydrochloride) [Example 65, N-(1-{2-[4-(6-Amino-pyridin-2-yl)-phenyl]-ethyl}-piperidin-4-yl)-2-(4-fluoro-phenyl)-acetamide], the melting point is 170 °C (dec.).

For `Nc1cccc(-c2ccc(CCNCCCCCc3ccccc3)cc2)n1` [Example 126, 6-{4-[2-(5-Phenyl-pentylamino)-ethyl]-phenyl}-pyridin-2-ylamine], the melting point fell in the range of 60 to 70 °C.

Turning to `Nc1cccc(-c2ccc(CCNC3CC4CCC(C3)N4Cc3ccc(Cl)cc3)cc2)n1` (centres unmarked) (as salt: hydrochloride), the melting point is 198 °C (dec.).

`Nc1cccc(-c2ccc(CCN3CCN(C(=O)c4ccco4)CC3)cc2)n1` [Example 7, (4-{2-[4-(6-Amino-pyridin-2-yl)-phenyl]-ethyl}-piperazin-1-yl)-furan-2-yl-methanone] yielded a melting point of 152 to 154 °C.

For the compound `Nc1cccc(-c2ccc(CCN3CCCC(N)C3)cc2)n1` (centres unmarked) (as salt: hydrochloride) [Example 86, 6-{4-[2-(3-Amino-piperidin-1-yl)-ethyl]-phenyl}-pyridin-2-ylamine], the melting point was 150 °C (dec.).

In the case of `Nc1cccc(-c2ccc(CCNC3CC4CCC(C3)N4Cc3ccc(F)cc3)cc2)n1` (centres unmarked) (as salt: hydrochloride), the melting point is 190 °C (dec.).

For `Cc1cccc(NC(=O)N2CCN(CCc3ccc(-c4cccc(N)n4)cc3)CC2)c1` [Example 45, 4-{2-[4-(6-Amino-pyridin-2-yl)-phenyl]-ethyl}-piperazine-1-carboxylic acid m-tolyl-amide], the melting point lay in the range of 88 to 94 °C.

On to `Nc1cccc(-c2ccc(CCN3CCN(C(=O)C(N)Cc4ccccc4)CC3)cc2)n1` (centres unmarked) (as salt: hydrochloride) [Example 61, 2-Amino-1-(4-{2-[4-(6-amino-pyridin-2-yl)-phenyl]-ethyl}-piperazin-1-yl)-3-phenyl-propan-1-one], for which the melting point is 230 °C (dec.).

With `Nc1cccc(-c2ccc(CCN3CCC(NC(=O)Cc4ccc(F)cc4)C3)cc2)n1` (centres unmarked) [Example 56, N-(1-{2-[4-(6-Amino-pyridin-2-yl)-phenyl]-ethyl}-pyrrolidin-3-yl)-2-(4-fluoro-phenyl)-acetamide], the melting point was 90 °C (dec.).

`Cc1cc(N)nc(-c2ccc(CCN3CCN(CCc4ccccc4)CC3)cc2)c1` (as salt: hydrochloride) [Example 128, 6-{4-[2-(4-Phenethyl-piperazin-1-yl)-ethyl]-phenyl}-4-methyl-pyridin-2-ylamine] returned a melting point of 242 to 250 °C.

Turning to `Nc1cccc(-c2ccc(CCN3C4CCC3CC(N)C4)cc2)n1` (centres unmarked) (as salt: hydrochloride), the melting point was > 300 °C.

`Cc1ccc(NC(=O)N2CCN(CCc3ccc(-c4cccc(N)n4)cc3)CC2)cc1` [Example 30, 4-{2-[4-(6-Amino-pyridin-2-yl)-phenyl]-ethyl}-piperazine-1-carboxylic acid p-tolyl-amide] yielded a melting point of 160 to 162 °C.

For `Nc1cccc(-c2ccc(CCN3CC4C(C3)C4NCCc3ccccc3)cc2)n1` (centres unmarked) (as salt: hydrochloride) [Example 46, (3-{2-[4-(6-Amino-pyridin-2-yl)-phenyl]-ethyl}-3-aza-bicyclo[3.1.0]hex-6-yl)-phenethyl-amine], the melting point was 165 °C (dec.).

For the compound `Nc1cccc(-c2ccc(CCNC3CC4CCC(C3)N4C(=O)Cc3ccc(F)cc3)cc2)n1` (centres unmarked) (as salt: hydrochloride), the melting point is 170 °C (dec.).

Take `Nc1cccc(-c2cccc(CCN3CCN(CCc4ccccc4)CC3)c2)n1` (as salt: hydrochloride) [Example 130, 6-{3-[2-(4-Phenethyl-piperazin-1-yl)-ethyl]-phenyl}-pyridin-2-ylamine]: the melting point is 120 °C (dec.).

`Nc1cccc(-c2ccc(CCN3C4CCC3CC(NC(=O)c3ccccc3)C4)cc2)n1` (centres unmarked) (as salt: hydrochloride): the melting point was 211 °C (dec.).

For `CN1CC2CC1CN2CCc1ccc(-c2cccc(N)n2)cc1` (centres unmarked) (as salt: hydrochloride), the melting point is 132 °C (dec.).

Turning to `Nc1cccc(-c2ccc(CCN3CCN(C(=O)Cc4ccc(Cl)cc4)CC3)cc2)n1` (as salt: hydrochloride), the melting point is 205 °C (dec.).

For `Nc1cccc(-c2ccc(CCNC3CC4COCC(C3)N4)cc2)n1` (centres unmarked) (as salt: hydrochloride) [107], the melting point was 170 °C (dec.).

Consider `Nc1cccc(-c2ccc(CCN3CCC4(CC3)NC(=O)N(Cc3ccccc3)C4=O)cc2)n1` (as salt: hydrochloride) [Example 43, 8-{2-[4-(6-Amino-pyridin-2-yl)-phenyl]-ethyl}-3-benzyl-1,3,8-triaza-spiro[4.5]decane-2,4-dione], for which the melting point was 190 °C (dec.).

Regarding `NC(=O)CNC1C2CN(CCc3ccc(-c4cccc(N)n4)cc3)CC21` (centres unmarked) [Example 52, 2-(3-{2-[4-(6-Amino-pyridin-2-yl)-phenyl]-ethyl}-3-aza-bicyclo[3.1.0]hex-6-ylamino)-acetamide], the melting point was 140 °C (dec.).

For the origin of these results see patent US6465491B2, “6-phenylpyridyl-2-amine derivatives” (Pfizer Inc., priority 1996, dated 2002).
